The text below walks through data of patent US9296745B2, “Diacylglycerol acyltransferase 2 inhibitors” (Pfizer Inc., priority 2012, dated 2016).

Structures are written as SMILES. Read-outs that look alike come from different tables or passages of the source.

One assay concerns the target Human DGAT2 (hDGAT2) (Homo sapiens (Human), UniProt Q96PD7). Description: In vitro DGAT2 assay, IC50 determination with hDGAT2 membrane fraction. Type of assay: biochemical. Particulars: geometric mean. Summed up:
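CHAPS-solubilized membrane fraction of FLAG-tagged hDGAT2 from baculovirus-infected SF9 cells (0.01 mg/mL) in 100 mM Hepes-NaOH pH 7.4, 20 mM MgCl2, 200 nM methyl arachidonyl fluorophosphonate; compounds pre-incubated 20 min with 0.04% BSA. Reaction 40 min at room temperature, stopped with H3PO4. [^14C]tridecanoylglycerol in organic phase counted; 11-point geometric mean IC50.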

Another assay addresses DGAT2 (Homo sapiens (Human), UniProt Q96PD7). Description: IC50 determination for DGAT2 inhibitors in human hepatocytes ([1,3-14C]-glycerol incorporation into lipids). Particulars: average IC50; cryopreserved human hepatocytes, selective DGAT1 inhibitor (3 μM) in all wells, 3 hour incubation with [1,3-14C]-glycerol; read-out: IC50 (nM) in primary human hepatocyte. Type of assay: cell-based. How it is done:
For evaluation of the effects of DGAT2 inhibitors in a cell-based setting, cryopreserved human hepatocytes (Lot QOC, Celsis, Chicago, Ill.) were thawed and plated onto type I collagen-coated plates according to the manufacturer's instructions. After 24 hours overnight recovery period, the cells were overlayed with media containing 250 μg/ml Matrigel (BD Biosciences, San Jose, Calif.). The following day, media was aspirated and replaced with serum-free Williams Media E (Life Technologies, Grand Island, N.Y.) containing 400 μM sodium dodecanoate (Sigma-Aldrich, St. Louis, Mo.). Forty minutes later, DGAT2 inhibitors (prepared as 100× stocks in 25% DMSO, 75% Williams' Media E) were added to the desired final concentration. […] After a 20 minute preincubation, 0.2 μCi [1,3-^14C]-glycerol (American Radio Chemicals, St. Louis, Mo.) was added to each well and mixed by gentle pipetting prior to a 3 hour incubation. At this point, media was aspirated and the cells were lysed in isopropyl alcohol:tetrahydrofuran (9:1) prior to centrifugation at 3000 rpm for 5 minutes. Radiolabeled lipids were resolved using a 2-solvent system by thin layer chromatography using standard technique (solvent 1 contained ethyl acetate: isopropyl alcohol: chloroform:methanol:0.25% potassium chloride in water (100:100:100:40.2:36.1, v/v/v/v) and solvent 2 contained hexane: diethyl ether: acetic acid (70:27:3, v/v/v)). After separation, radiolabeled lipids were visualized using a Molecular Dynamics' PhosphorImager system. The half maximal inhibitory concentrations (IC50 values) were determined using Graph Pad Prism (GraphPad Software, Inc., La Jolla, Calif.).

Where [1] appears, read: background for complete inhibition of DGAT2 obtained with 50 μM (1R,2R)-2-({3′-Fluoro-4′-[(6-fluoro-1,3-benzothiazol-2-yl)amino]-1,1′-biphenyl-4-yl}carbonyl)cyclopentanecarboxylic acid, read-out: DGAT2 IC50.
Setting [2] is: background for complete inhibition of DGAT2 obtained with Example 196-A instead of the cyclopentanecarboxylic acid reference, read-out: DGAT2 IC50 (nM), values in the parentheses.

What is called IC50 is the concentration that inhibits the measured activity by half.

Sequence of DGAT2 (Q96PD7 whole entry): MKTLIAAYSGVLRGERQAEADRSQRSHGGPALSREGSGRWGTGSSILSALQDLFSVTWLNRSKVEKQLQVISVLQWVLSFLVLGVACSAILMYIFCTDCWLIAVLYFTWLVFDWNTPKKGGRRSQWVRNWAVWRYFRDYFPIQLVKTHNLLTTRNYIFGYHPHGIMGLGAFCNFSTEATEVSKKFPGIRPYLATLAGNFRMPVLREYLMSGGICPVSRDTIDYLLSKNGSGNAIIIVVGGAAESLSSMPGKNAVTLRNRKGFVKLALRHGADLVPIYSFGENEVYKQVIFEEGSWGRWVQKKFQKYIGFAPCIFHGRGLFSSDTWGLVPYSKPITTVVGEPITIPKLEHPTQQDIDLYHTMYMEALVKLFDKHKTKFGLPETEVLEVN
Sequence of Human DGAT2 (hDGAT2) (Q96PD7 whole entry): as above

For `C[C@@H](c1nc2ccc(N3CCC[C@@H](C(=O)N4CCCC4)C3)nc2[nH]1)n1cc(Cl)cn1` [Example 196-A, ((R)-1-(2-((S)-1-(4-Chloro-1H-pyrazol-1-yl)ethyl)-3H-imidazo[4,5-b]pyridin-5-yl)piperidin-3-yl)(pyrrolidin-1-yl)methanone], the IC50 at Human DGAT2 (hDGAT2) (setting [1]) came to 14.5 nM; on Human DGAT2 (hDGAT2) (setting [2]), 20.6 nM; at DGAT2, 4.6 nM.

On to `C[C@H](c1nc2ccc(N3CCC[C@@H](C(=O)N4CCCC4)C3)nc2[nH]1)n1cc(Cl)cn1` [Example 197, ((R)-1-(2-((R)-1-(4-chloro-1H-pyrazol-1-yl)ethyl)-3H-imidazo[4,5-b]pyridin-5-yl)piperidin-3-yl)(pyrrolidin-1-yl)methanone], for which the IC50 on Human DGAT2 (hDGAT2) (setting [1]) is 33.7 nM; on DGAT2, 5.5 nM.

For `C[C@@H](c1nc2cnc(N3CCC[C@@H](C(=O)N4CCCC4)C3)nc2[nH]1)n1cc(Cl)cn1` [Example 198, ((R)-1-(8-((S)-1-(4-Chloro-1H-pyrazol-1-yl)ethyl)-9H-purin-2-yl)piperidin-3-yl)(pyrrolidin-1-yl)methanone], the figures for the IC50 at Human DGAT2 (hDGAT2) (setting [1]) and at DGAT2 were 43 nM and 7.8 nM, respectively.

As for `C[C@H](c1nc2cnc(N3CCC[C@@H](C(=O)N4CCCC4)C3)nc2[nH]1)n1cc(Cl)cn1` [Example 199, ((R)-1-(8-((R)-1-(4-chloro-1H-pyrazol-1-yl)ethyl)-9H-purin-2-yl)piperidin-3-yl)(pyrrolidin-1-yl)methanone], the IC50 came out at 18.9 nM at Human DGAT2 (hDGAT2) (setting [1]), 32.9 nM at Human DGAT2 (hDGAT2) (setting [2]) and 2.5 nM on DGAT2.

`O=C([C@@H]1CCCN(c2ncc3nc(C4(n5cc(F)cn5)CC4)[nH]c3n2)C1)N1CCCC1` [Example 209, (R)-(1-(8-(1-(4-Fluoro-1H-pyrazol-1-yl)cyclopropyl)-9H-purin-2-yl)piperidin-3-yl)(pyrrolidin-1-yl)methanone]: the IC50 was determined as 101 nM at Human DGAT2 (hDGAT2) (setting [1]) and 8.9 nM on DGAT2.
